Laboratory results reported in patent US7538116B2, “Treatment of sexual disorders” (priority 2003, dated 2009).

Legend:
Type in all cases: in vivo, human
subjects with depression = assay: DISF interview, short-term investigation in depression (134004); conditions: trial 134004; for mean change from baseline in total score (DISF interview): short-term treatment
Procedure: (§1) Sexual dysfunction and recovery were measured with the Derogatis Interview for Sexual Functioning (DISF/DISF-SR). This provides for a coordinated set of brief matched instruments designed to provide an estimate of the quality of an individual's current sexual functioning. The DISF is a semi-structured interview comprising 25 items and reflecting quality of sexual functioning in a multi-domain format. The DISF-SR is a matching Self-Report (SR) inventory designed to accomplish the same goal in a patient self-report mode. There are gender specific male and female versions of both the DISF and the DISF-SR. All instruments in the DISF series are designed to be interpreted at three distinct levels: Discrete Items, Functional Domains, and aggregate summary (Total Score). The Discrete Items are arranged into five primary Functional Domains of sexual functioning: (I) sexual cognition/fantasy, (II) sexual arousal, (III) sexual behavior/experience, (IV) orgasm, and (V) sexual drive/relationship. Both the DISF and the DISF-SR take approximately 12 to 15 minutes to administer. Internal consistency reliabilities for domain scores of the DISF-SR range from 0.70 to 0.77, while test-retest stability coefficients are 0.80 to 0.90 and 0.86 for the Total Score. Inter-rater reliability estimates for the DISF interview ranged from 0.84 to 0.92 for domain scores, and 0.91 for the Total. […] The DISF/DISF-SR is currently available in 10 foreign languages.
(§2) The Derogatis Interview was used, providing information on the quality of the subject's sexual functioning in quantitative terms. Only subjects who were willing to discuss their sexual functioning with the investigator were to be included. In addition, the scores from the interview, as well as demographic and medical history information, were to be used by the investigator to determine whether or not the subject reached the threshold of disorder (absent or present) for the primary criteria for the DSM-IV Sexual Disorders.
DISF interview data from the analysis of another investigation of gepirone in depression (Organon internal reference number: 134004) were analyzed. […] Upon analysis of change from baseline in total score only for each domain for females and Domains I to III for males, similar conclusions for subjects who received gepirone and fluoxetine could be drawn.

[1] = tested on: subjects from trial 134004; assay: DISF interview, long-term trial 134502 (continued or switched therapy)
Procedure: as §1, §2
In another study (Organon's Internal reference number 134501), all subjects received gepirone ER (40 mg) after having completed a trial wherein subjects were randomized to receive either gepirone ER or placebo. DISF-SR data from the analysis of this long-term trial were analyzed. For females, data were available for 23 subjects who received gepirone in a previous trial (Organon internal reference: 134001 or 134002) previously (henceforth referred to as gepirone in this paragraph) and 23 subjects who received placebo previously (henceforth referred to as placebo in this paragraph). […] For males, data were available for 17 subjects who received gepirone and 17 subjects who received placebo. […] DISF Interview data from the analysis of another long-term trial (Organon internal reference: 134502) were analyzed. In this trial subjects from a previous trial (Organon internal reference:134004) were continued on therapy or were switched to a new drug, depending on antidepressant response.

depressed outpatients = assay: DISF-SR, combined analysis of two short-term investigations (134001 and 134002); conditions: short-term treatment (2 months), 134001 and 134002 combined
Procedure: Sexual dysfunction and recovery were measured with the Derogatis Interview for Sexual Functioning (DISF/DISF-SR). This provides for a coordinated set of brief matched instruments designed to provide an estimate of the quality of an individual's current sexual functioning. The DISF is a semi-structured interview comprising 25 items and reflecting quality of sexual functioning in a multi-domain format. The DISF-SR is a matching Self-Report (SR) inventory designed to accomplish the same goal in a patient self-report mode. There are gender specific male and female versions of both the DISF and the DISF-SR. All instruments in the DISF series are designed to be interpreted at three distinct levels: Discrete Items, Functional Domains, and aggregate summary (Total Score). The Discrete Items are arranged into five primary Functional Domains of sexual functioning: (I) sexual cognition/fantasy, (II) sexual arousal, (III) sexual behavior/experience, (IV) orgasm, and (V) sexual drive/relationship. Both the DISF and the DISF-SR take approximately 12 to 15 minutes to administer. […]
The Derogatis Interview was used, providing information on the quality of the subject's sexual functioning in quantitative terms. […]
DISF-SR data from the combined analysis of two investigations of gepirone in depressed outpatients (Organon internal reference: 134001 and 134002) were analyzed. […]

[2] = tested on: subjects in remission from depression; assay: DISF total score, longer-term trial 28709 (randomized after remission); conditions: for mean change from baseline in total score (DISF): gepirone HCl ER 40 mg, randomized after remission
Procedure: as §1
as §2, with “Disorders. […]” for “Disorders.”

[3] = tested on: subjects from trials 134001 or 134002; assay: DISF-SR, long-term trial 134501 (all subjects on gepirone ER); conditions: then gepirone ER 40 mg
Procedure: as §1, §2
In another study (Organon's Internal reference number 134501), all subjects received gepirone ER (40 mg) after having completed a trial wherein subjects were randomized to receive either gepirone ER or placebo. DISF-SR data from the analysis of this long-term trial were analyzed. For females, data were available for 23 subjects who received gepirone in a previous trial (Organon internal reference: 134001 or 134002) previously (henceforth referred to as gepirone in this paragraph) and 23 subjects who received placebo previously (henceforth referred to as placebo in this paragraph). […] DISF Interview data from the analysis of another long-term trial (Organon internal reference: 134502) were analyzed. […]

depressed patients = assay: Specific case descriptions, long-term open-label study
Excerpt: In another trial patients were enrolled in a long-term open-label study of depressed patients. […] It was observed that most of the reports were from patients in long-term therapy who had recovered from their depression weeks to months before making the reports. These reports provided incidental observations on both men and women of various ages that sexual desire had increased to a level not previously experienced by the subject and which was quite pleasing to them. It appeared that these patients were no longer depressed and now had the added benefit that sexual function, sexual relationships, and quality of life were improved beyond that experienced by patients merely recovering from depression. […] They were pursuing a dating life for the first time in years. […] They were not depressed anymore and the sexual effects continued to increase. […] They were successful and carried out a satisfying sexual relationship for the fist time since the death of their spouse. They were reported to be “giddy” over the effects of gepirone in this domain. Their quality of life was judged as much improved by the investigator.

[4] = males, same treatment throughout short-term (134004) and long-term (134502) trials

CNCCC(Oc1ccc(C(F)(F)F)cc1)c1ccccc1 (centres unmarked) [fluoxetine]
mean change from baseline in total score (DISF interview) (subjects with depression; females): −3.5 | mean change from baseline in total score (DISF interview) (subjects with depression; males): −4.4 | mean change from baseline in total score (DISF interview) ([1]; females, switched from gepirone to fluoxetine, trial 134502): +0.9 | mean change from baseline in total score (DISF interview) [1, 4]: −1.2 | mean change from baseline in total score (DISF interview) ([1]; males, switched from gepirone to fluoxetine, trial 134502): −5.8

CC1(C)CC(=O)N(CCCCN2CCN(c3ncccn3)CC2)C(=O)C1 [gepirone, 4,4-dimethyl-1-[4-[4-(2-pyrimidinyl)-1-piperazinyl]butyl]-2,6-piperidinedione]
mean change from baseline in total score (DISF-SR) (depressed outpatients; females): +8.0 | mean change from baseline in total score (DISF-SR) (depressed outpatients; males): +13.7 | mean change from baseline in total score (DISF interview) (subjects with depression; females): +4.3 | mean change from baseline in total score (DISF interview) (subjects with depression; males): 0 | change from baseline in total score for Domains IV (orgasm) and V (sexual drive/relationship) (subjects with depression; males): improvement in total score from baseline | mean change from baseline in total score (DISF) ([2]; females): +5.2 | Domains IV (orgasm) and V (sexual drive/relationship), total score from baseline ([2]; males): improvement in total score from baseline | mean change from baseline in total score (DISF) ([2]; males): +18.7 | mean change from baseline in total score (DISF-SR) ([3]; females, gepirone in previous trial): +11.2 | mean change from baseline in total score (DISF-SR) ([3]; females, placebo in previous trial): +3.3 | mean change from baseline in total score (DISF-SR) ([3]; males, gepirone in previous trial): +12.3 | mean change from baseline in total score (DISF-SR) ([3]; males, placebo in previous trial): −4.4 | mean change from baseline in total score (DISF interview) ([1]; females, same treatment throughout short-term (134004) and long-term (134502) trials): +18.1 | mean change from baseline in total score (DISF interview) ([1]; females, switched from fluoxetine to gepirone, trial 134502): +2.3 | mean change from baseline in total score (DISF interview) ([1]; females, switched from placebo to gepirone, trial 134502): +4.2 | mean change from baseline in total score (DISF interview) [1, 4]: +5.5 | mean change from baseline in total score (DISF interview) ([1]; males, switched from fluoxetine to gepirone, trial 134502): +3.3 | mean change from baseline in total score (DISF interview) ([1]; males, switched from placebo to gepirone, trial 134502): +7.1 | quality of life judged by the investigator (case report) (depressed patients; patient): much improved | orgasms (case report) (depressed patients; person on open-label therapy, no longer depressed): more frequent and more intense | libido (case report) (depressed patients; person, on gepirone for nearly a year): libido was up
